Laboratory results from US20170313674A1, “BENZYLHYDROXIDE DERIVATIVES, PREPARATION THEREOF AND THERAPEUTIC USE THEREOF” (SANOFI, priority 2014, published 2017).

Columns and labels:
HIF-1a = experiment: Western blot model: HIF1-a stabilization in Hep3b cells under hypoxia; type: cell-based; conditions: hypoxia 1% O2, 6 hours; for Western Blot (range of decrease of HIF1-a stabilization): class symbol
In short: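 Hep3B cells were exposed to compound under hypoxia (1% O2, 37 °C, 5% CO2) for 6 hours. HIF-1a was detected by western blot of 25 μg lysate protein with β-actin as loading control and ECL read-out. Activity is given as a percentage range relative to control.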

[1] = test system: mitochondrial ATP production on non-small cell lung carcinoma cell lines NCI-H460; experiment: Mitochondrial ATP analysis (Cell Titer Glo) in NCI-H460 cells; type: cell-based; conditions: Homo sapiens, NCI-H460, 1 h, 1-hour incubation, with sodium iodoacetate (100 μM), concentration inhibiting 50% of mitochondrial ATP production, read-out: IC50 (mito ATP)
In short: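 NCI-H460 cells (1,000/well) treated 24 h after plating for 1 h with compound dose series alone or with 100 μM sodium iodoacetate; oligomycin A (10 μg/ml) and FCCP (30 μM) as controls; Cell Titer Glo luminescence. Mitochondrial ATP = ATP under iodoacetate minus ATP under iodoacetate+oligomycin; IC50 (M).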

Row | Compound | IC50 [1] [nM] | Western Blot (decrease of HIF1-a stabilization, percentage relative to control) (HIF-1a) [%] | Western Blot (range of decrease of HIF1-a stabilization) (HIF-1a)
1 | COc1ccc(C(O)C(C)Oc2ccc(-c3nsc(-c4ccc(OC(C)C(O)c5ccc(OC)c(OC)c5)cc4)n3)cc2)cc1OC (stereo not drawn) [Compound I-39, 1-(3,4-dimethoxyphenyl)-2-[4-[5-[4-[2-(3,4-dimethoxyphenyl)-2-hydroxy-1-methyl-ethoxy]phenyl]-1,2,4-thiadiazol-3-yl]phenoxy]propan-1-ol] | 92.5 | 51 | ** (** represents a decrease of HIF-a stabilization between 50 to 70%)
2 | COc1ccc(C(O)C(C)(C)Oc2ccc(-c3nsc(-c4ccc(OC(C)(C)C(O)c5ccc(OC)c(OC)c5)cc4)n3)cc2)cc1OC (stereo not drawn) [Compound I-42, 1-(3,4-dimethoxyphenyl)-2-[4-[5-[4-[2-(3,4-dimethoxyphenyl)-2-hydroxy-1,1-dimethyl-ethoxy]phenyl]-1,2,4-thiadiazol-3-yl]phenoxy]-2-methyl-propan-1-ol] | 30 | 56 | ** (** represents a decrease of HIF-a stabilization between 50 to 70%)
3 | COc1ccc(C(O)C(C)Oc2ccc(-c3cnc(-c4ccc(OC(C)C(O)c5ccc(OC)c(OC)c5)cc4)o3)cc2)cc1OC (stereo not drawn) [Compound I-45, 1-(3,4-dimethoxyphenyl)-2-[4-[2-[4-[2-(3,4-dimethoxyphenyl)-2-hydroxy-1-methyl-ethoxy]phenyl]oxazol-5-yl]phenoxy]propan-1-ol] | 426 | 87 | *** (*** represents a decrease of HIF-a stabilization higher than 70%)
4 | COc1ccc(C(O)C(C)(C)Oc2ccc(-c3cn(C)c(-c4ccc(OC(C)(C)C(O)c5ccc(OC)c(OC)c5)cc4)n3)cc2)cc1OC (stereo not drawn) [Compound I-57, 1-(3,4-dimethoxyphenyl)-2-[4-[2-[4-[2-(3,4-dimethoxyphenyl)-2-hydroxy-1,1-dimethyl-ethoxy]phenyl]-1-methyl-imidazol-4-yl]phenoxy]-2-methyl-propan-1-ol] | 51.9 | 18 | − (− represents a decrease of HIF1-a stabilization is less than 30%)

The next lines start with results.

Row | IC50 [1] [nM] | Compound | Western Blot (decrease of HIF1-a stabilization, percentage relative to control) (HIF-1a) [%] | Western Blot (range of decrease of HIF1-a stabilization) (HIF-1a)
5 | 458 | COc1ccc(C(O)COc2ccc(-c3cn(C)c(-c4ccc(OCC(O)c5ccc(OC)c(OC)c5)cc4)n3)cc2)cc1OC (stereo not drawn) [Compound I-58, 1-(3,4-dimethoxyphenyl)-2-[4-[2-[4-[2-(3,4-dimethoxyphenyl)-2-hydroxy-ethoxy]phenyl]-1-methyl-imidazol-4-yl]phenoxy]ethanol] | 56 | ** (** represents a decrease of HIF-a stabilization between 50 to 70%)
6 | 42.9 | COc1ccc(C(O)COc2ccc(-c3csc(-c4ccc(OC(C)(C)C(O)c5ccc(OC)c(OC)c5)cc4)n3)cc2)cc1OC (stereo not drawn) [Compound I-63, 1-(3,4-dimethoxyphenyl)-2-[4-[4-[4-[2-(3,4-dimethoxyphenyl)-2-hydroxy-ethoxy]phenyl]thiazol-2-yl]phenoxy]-2-methyl-propan-1-ol] | 64 | ** (** represents a decrease of HIF-a stabilization between 50 to 70%)
7 | 180 | COc1ccc(C(O)COc2ccc(-c3nc(-c4ccc(OC(C)(C)C(O)c5ccc(OC)c(OC)c5)cc4)cs3)cc2)cc1OC (stereo not drawn) [Compound I-64, 1-(3,4-dimethoxyphenyl)-2-[4-[2-[4-[2-(3,4-dimethoxyphenyl)-2-hydroxy-ethoxy]phenyl]thiazol-4-yl]phenoxy]-2-methyl-propan-1-ol] | 58 | ** (** represents a decrease of HIF-a stabilization between 50 to 70%)
